Biological target: TNFα (Homo sapiens, UniProt P01375)
Assay: HEK-Blue hTNFα reporter assay
Assay type: cell-based
Parameters: purchased R&D biosystem (R&D Systems) 210-TA-020/CF
Conditions: HEK-Blue hTNFα reporter cells, SEAP readout; read-out: IC50 Range
In short: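 IC50 from 4-parameter regression of % inhibition, with OD620 of secreted SEAP (QUANTI-Blue, 1 h) referenced to cells with and without hTNFα. HEK-Blue TNFα reporter cells were exposed 24 h to compound premixed 1 h with hTNFα ([…]).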

Sequence of TNFα (P01375 77-233 limits assumed): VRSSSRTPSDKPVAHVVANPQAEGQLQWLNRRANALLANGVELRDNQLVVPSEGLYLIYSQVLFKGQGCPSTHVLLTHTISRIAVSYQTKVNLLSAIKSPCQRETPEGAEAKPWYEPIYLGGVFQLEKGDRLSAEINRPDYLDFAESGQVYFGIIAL

IC50 [nM]	SMILES
25 to 100	[2H]C([2H])([2H])N1C(=O)c2cccc(OC(F)F)c2[C@H]2C[C@@H]1c1nn3ccc(-c4cnc(C5(N)COC5)nc4)nc3c12 [Example 177]
< 25	[2H]C([2H])([2H])N1C(=O)c2cccc(OC(F)F)c2[C@H]2C[C@@H]1c1nn3cc(F)c(-c4cnc(C5(N)COC5)nc4)nc3c12 [Example 178]
< 25	[2H]C([2H])([2H])N1C(=O)c2cccc(OC(F)F)c2[C@H]2C[C@@H]1c1nn3ccc(-c4cnc([C@]5(N)C[C@H](C#N)C5)nc4)nc3c12 [Example 179]
100 to 1000	[2H]C([2H])([2H])N1C(=O)c2cccc(OC(F)F)c2[C@H]2C[C@@H]1c1nn3ccc(-c4cnc([C@]5(O)C[C@@](C)(N)C5)nc4)nc3c12 [Example 180]
< 25	[2H]C([2H])([2H])N1C(=O)c2cccc(OC(F)F)c2[C@H]2C[C@@H]1c1nn3cc(C)c(-c4cnc(C5(N)CCC5)nc4)cc3c12 [Example 181]
< 25	[2H]C([2H])([2H])N1C(=O)c2cccc(OC(F)F)c2[C@H]2C[C@@H]1c1nn3ccc(-c4ccc(C5(N)CCC5)nc4)nc3c12 [Example 182]
< 25	[2H]C([2H])([2H])N1C(=O)c2cccc(OC(F)F)c2[C@H]2C[C@@H]1c1nn3cc(F)c(-c4cnc([C@]5(N)C[C@](O)(C(F)(F)F)C5)nc4)nc3c12 [Example 183]
< 25	NC1(c2ncc(-c3ccn4nc5c(c4c3)[C@@H]3C[C@H]5NC(=O)c4cccc(OC(F)F)c43)cn2)CCC1 [Example 184]
25 to 100	[2H]C([2H])([2H])N1C(=O)c2cccc(OC(F)F)c2[C@H]2C[C@@H]1c1nn3cc(F)c(-c4cnc([C@]5(O)C[C@@](C)(N)C5)nc4)nc3c12 [Example 185]
25 to 100	NC1(c2ccc(-c3ccn4nc5c(c4n3)[C@@H]3C[C@H]5NC(=O)c4cccc(OC(F)F)c43)cn2)CCC1 [Example 186]
< 25	[2H]C([2H])([2H])N1C(=O)c2cccc(OC(F)F)c2[C@H]2C[C@@H]1c1nn3ccc(-c4cnc([C@]5(N)C[C@@H](O)C5)nc4)cc3c12 [Example 187]
< 25	[2H]C([2H])([2H])N1C(=O)c2cccc(OC(F)F)c2[C@H]2C[C@@H]1c1nn3cc(F)c(-c4cnc([C@]5(N)C[C@@](C)(O)C5)c(F)c4)nc3c12 [Example 188]
< 25	[2H]C([2H])([2H])N1C(=O)c2cccc(OC(F)F)c2[C@H]2C[C@@H]1c1nn3ccc(-c4cnc([C@]5(N)C[C@@](C)(O)C5)c(F)c4)nc3c12 [Example 189]
< 25	C[C@]1(C#N)C[C@](N)(c2ncc(-c3ccn4nc5c(c4c3)[C@@H]3C[C@H]5NC(=O)c4cccc(OC(F)F)c43)cc2F)C1 [Example 190]
< 25	C[C@@](O)(CC#N)c1ncc(-c2cc3c4c(nn3cc2F)[C@H]2C[C@@H]4c3c(OC(F)F)cccc3C(=O)N2)cn1 [Example 191]
< 25	C[C@](O)(CC#N)c1ncc(-c2cc3c4c(nn3cc2F)[C@H]2C[C@@H]4c3c(OC(F)F)cccc3C(=O)N2)cn1 [Example 192]
< 25	[2H]C([2H])([2H])N1C(=O)c2cccc(OC(F)F)c2[C@H]2C[C@@H]1c1nn3ccc(-c4cnc([C@]5(N)CCOC5)nc4)nc3c12 [Example 193]
25 to 100	[2H]C([2H])([2H])N1C(=O)c2cccc(OC(F)F)c2[C@H]2C[C@@H]1c1nn3ccc(-c4cnc([C@@]5(N)CCOC5)nc4)nc3c12 [Example 194]
< 25	C[C@]1(C#N)C[C@](N)(c2ncc(-c3ccn4nc5c(c4c3)[C@@H]3C[C@H]5NC(=O)c4cccc(OC(F)F)c43)cn2)C1 [Example 195]
< 25	C[C@]1(O)C[C@](N)(c2ncc(-c3ccn4nc5c(c4c3)[C@@H]3C[C@H]5NC(=O)c4cccc(OC(F)F)c43)cn2)C1 [Example 197]
< 25	Cc1cc(P(C)(C)=O)c(F)cc1-c1ccn2nc3c(c2c1)[C@@H]1C[C@H]3NC(=O)c2cccc(OC(F)F)c21 [Example 198]
< 25	[2H]C([2H])([2H])N1C(=O)c2cccc(OC(F)F)c2[C@H]2C[C@@H]1c1nn3cc(F)c(-c4cnc(C5(N)CCC5)cn4)cc3c12 [Example 199]
< 25	[2H]C([2H])([2H])N1C(=O)c2cccc(OC(F)F)c2[C@H]2C[C@@H]1c1nn3cc(F)c(-c4cnc([C@]5(N)C[C@@](C)(C#N)C5)cn4)cc3c12 [Example 200]
< 25	[2H]C([2H])([2H])N1C(=O)c2cccc(OC(F)F)c2[C@H]2C[C@@H]1c1nn3cc(C)c(-c4cnc([C@]5(N)C[C@@](C)(O)C5)nc4)cc3c12 [Example 201]
< 25	O=C1N[C@@H]2C[C@H](c3c(OC(F)F)cccc31)c1c2nn2ccc(-c3ccnc(OC4COC4)c3)cc12 [Example 202]
< 25	NC1(c2ccc(-c3ccn4nc5c(c4c3)[C@@H]3C[C@H]5NC(=O)c4cccc(OC(F)F)c43)cn2)CCC1 [Example 203]

IC50 [nM]	SMILES
25 to 100	[2H]C([2H])([2H])N1C(=O)c2cccc(OC(F)F)c2[C@H]2C[C@@H]1c1nn3ccc(-c4cnc([C@]5(N)C[C@@H](O)C5)nc4)nc3c12 [Example 204]
25 to 100	[2H]C([2H])([2H])N1C(=O)c2cccc(OC(F)F)c2[C@H]2C[C@@H]1c1nn3cc(F)c(-c4cnc([C@]5(N)C[C@@H](O)C5)nc4)nc3c12 [Example 205]
< 25	[2H]C([2H])([2H])N1C(=O)c2cccc(OC(F)F)c2[C@H]2C[C@@H]1c1nn3cc(F)c(-c4cnc(C5(N)COC5)nc4)cc3c12 [Example 206]
< 25	[2H]C([2H])([2H])N1C(=O)c2cccc(OC(F)F)c2[C@H]2C[C@@H]1c1nn3ccc(-c4cnc(C5(N)CCC5)cn4)cc3c12 [Example 207]
< 25	[2H]C([2H])([2H])N1C(=O)c2cccc(OC(F)F)c2[C@H]2C[C@@H]1c1nn3ccc(-c4cnc([C@]5(O)C[C@@](C)(N)C5)nc4)cc3c12 [Example 208]
< 25	[2H]C([2H])([2H])N1C(=O)c2cccc(OC(F)F)c2[C@H]2C[C@@H]1c1nn3ccc(-c4cnc([C@]5(N)C[C@@](C)(O)C5)cn4)cc3c12 [Example 209]
< 25	[2H]C([2H])([2H])N1C(=O)c2cccc(OC(F)F)c2[C@H]2C[C@@H]1c1nn3ccc(-c4cnc([C@]5(N)C[C@@](C)(C#N)C5)cn4)cc3c12 [Example 210]
< 25	[2H]C([2H])([2H])N1C(=O)c2cccc(OC(F)F)c2[C@H]2C[C@@H]1c1nn3ccc(-c4ncc(C5(N)CCC5)cn4)cc3c12 [Example 211]
< 25	C[C@]1(C#N)C[C@](N)(c2ccc(-c3ccn4nc5c(c4c3)[C@@H]3C[C@H]5NC(=O)c4cccc(OC(F)F)c43)cn2)C1 [Example 212]
< 25	[2H]C([2H])([2H])N1C(=O)c2cccc(OC(F)F)c2[C@H]2C[C@@H]1c1nn3cc(F)c(-c4cnc([C@]5(N)C[C@@](C)(C#N)C5)nc4)nc3c12 [Example 213]
< 25	[2H]C([2H])([2H])N1C(=O)c2cccc(OC(F)F)c2[C@H]2C[C@@H]1c1nn3cc(F)c(-c4cnc([C@]5(N)C[C@@](C)(O)C5)cn4)cc3c12 [Example 214]
< 25	[2H]C([2H])([2H])N1C(=O)c2cccc(OC(F)F)c2[C@H]2C[C@@H]1c1nn3cc(C)c(-c4cnc([C@]5(N)C[C@@](C)(O)C5)nc4)nc3c12 [Example 215]
< 25	[2H]C([2H])([2H])N1C(=O)c2cccc(OC(F)F)c2[C@H]2C[C@@H]1c1nn3cc(C)c(-c4cnc(C5(N)CCC5)nc4)nc3c12 [Example 216]
< 25	C[C@]1(C#N)C[C@](N)(c2ccc(-c3ccn4nc5c(c4n3)[C@@H]3C[C@H]5NC(=O)c4cccc(OC(F)F)c43)cn2)C1 [Example 217]
< 25	[2H]C([2H])([2H])N1C(=O)c2cccc(OC(F)F)c2[C@H]2C[C@@H]1c1nn3ccc(-c4cnc([C@]5(N)C[C@@](C)(O)C5)nc4)nc3c12 [Example 218]
25 to 100	C[C@]1(O)C[C@](N)(c2ccc(-c3ccn4nc5c(c4n3)[C@@H]3C[C@H]5NC(=O)c4cccc(OC(F)F)c43)cn2)C1 [Example 220]
< 25	[2H]C([2H])([2H])N1C(=O)c2cccc(OC(F)F)c2[C@H]2C[C@@H]1c1nn3ccc(-c4cnc(C5(N)CCC5)c(F)c4)nc3c12 [Example 221]
< 25	[2H]C([2H])([2H])N1C(=O)c2cccc(OC(F)F)c2[C@H]2C[C@@H]1c1nn3ccc(-c4cnc([C@]5(N)C[C@@](C)(O)C5)nc4)cc3c12 [Example 222]
< 25	C[C@]1(O)C[C@](N)(c2ncc(-c3nc4c5c(nn4cc3F)[C@H]3C[C@@H]5c4c(OC(F)F)cccc4C(=O)N3)cn2)C1 [Example 223]
< 25	C[C@]1(O)C[C@](N)(c2ccc(-c3ccn4nc5c(c4c3)[C@@H]3C[C@H]5NC(=O)c4cccc(OC(F)F)c43)cn2)C1 [Example 224]
< 25	[2H]C([2H])([2H])N1C(=O)c2cccc(OC(F)F)c2[C@H]2C[C@@H]1c1nn3cc(F)c(-c4cnc([C@]5(N)C[C@@H](O)C5)c(F)c4)nc3c12 [Example 225]
< 25	COc1cccc2c1[C@H]1C[C@H](c3nn4ccc(-c5cnc(C6(N)CCC6)nc5)cc4c31)N(C)C2=O [Example 226]
< 25	[2H]C([2H])([2H])N1C(=O)c2cccc(OC(F)F)c2[C@H]2C[C@@H]1c1nn3cc(F)c(-c4cnc([C@]5(N)C[C@@H](C#N)C5)nc4)nc3c12 [Example 227]
< 25	[2H]C([2H])([2H])N1C(=O)c2cccc(OC(F)F)c2[C@H]2C[C@@H]1c1nn3cc(F)c(-c4cnc(C5(N)CC(F)(F)C5)nc4)nc3c12 [Example 228]
< 25	C[C@]1(O)C[C@](N)(c2ncc(-c3ccn4nc5c(c4c3)[C@@H]3C[C@H]5NC(=O)c4ccc(F)c(OC(F)F)c43)cn2)C1 [Example 229]
< 25	[2H]C([2H])([2H])N1C(=O)c2cccc(OC(F)F)c2[C@H]2C[C@@H]1c1nn3ccc(-c4cnc([C@]5(N)C[C@@](C)(C#N)C5)nc4C)nc3c12 [Example 230]

Reference: patent US12410179B2, “Modulators of TNF alpha activity and uses thereof” (RayThera, Inc., priority 2023, dated 2025)
